Where a name gives a salt, the structure may show the parent alone.
Legend:
[1] = tested on: intracellular cystine (circulating white blood cells); details: taken regularly; measured in circulating white blood cells; cited from earlier work
[2] = cited from earlier work
[3] = Pharmacokinetic (PK) study of cysteamine in plasma after oral dosing in rats, blood sampling from portal vein and heart (HPV protocol); assay type: in vivo, rat
Method: Absorption and hepatic extraction information after oral administration and blood sampling from portal vein and heart (HPV protocol) were evaluated.
Blood samples were collected at intervals up to 24 h after dose administration (n=3 animals per each time point).
Sample Collection and Handling: After PO administration, blood samples were collected under deep Isofluorane anesthesia from portal vein and heart of each rat (3 rats per each time point). Blood was collected into potassium EDTA tubes at each of the following time points post-dose (actual times will be recorded): 0.25, 0.5, 1, 2, 4, 6, 8, 12 and 24 hours after dosing. All blood samples were thoroughly, but gently mixed following collection, placed on ice and centrifuged as soon as possible (2000 g for 5 min at 0° C.) to prepare plasma. Duplicate 50 μL aliquots of plasma samples were transferred in micronic tubes.
Plasma Sample Preparation: • 1. Calibration standards (CS) and quality control (QC) plasma samples were prepared by adding 5 μL WS to 45 μL of fresh plasma into micronic tubes using Tecan. • 2. Pseudo QC were prepared by adding 5 μL WSQC to 45 μL of water into micronic tubes using Tecan. • 3. CS, QC, pseudo QC and blank were diluted with 200 μL of KCl solution (1.15%). • 4. Plasma collection was performed by laboratory automation system (LAS). 50 μL whole plasma was transferred into micronic tubes containing 200 μL of KCl solution (1.15%). • 5. All samples were added […] with 20 μL of glutathione ethyl ester as internal standard (0.01 mg/mL in water) and 100 μL of Ellman's reagent (10 mM in water). • 6. […]
Plasma sample analysis: Samples were assayed for cysteamine using a method based on protein precipitation followed by HPLC/MS-MS analysis. Study samples were analyzed in discrete batches together with calibration standards (CS), used to construct calibration curves and blank samples (including also double blanks), used to assess specificity. […] The presence of prodrug and its products were monitored but not quantified in both portal and systemic plasma. […]

Compound: NCCS [cysteamine, 2-aminoethane-1-thiol]
- Depletion of intracellular cystine [1]: up to 90%
- Duration of activity (short half-life) ([2]; in vivo): 5 to 6 h
- Estimated bioavailability ([2]; oral administration, extensive first pass metabolism): 10-30%

Compound: NCCS [Cysteamine Hydrochloride, cysteamine hydrochloride]
- Fa % (fraction absorbed) ([3]; male, CD, rat, in vivo, po): 16.1%

Compound: Cl.NCCS.OCC(O)CO [Glycerol Cysteamine Hydrochloride, glycerol cysteamine hydrochloride]
- Release of cysteamine hydrochloride from the glycerol prodrug moiety (conclusion) ([3]; rats PO, gastrointestinal (GI) tract): fully separated from the glycerol prodrug moiety in the gastrointestinal (GI) tract
- Cysteamine levels in portal plasma after prodrug administration ([3]; rats PO, versus cysteamine hydrochloride administration): comparable to those observed after cysteamine hydrochloride administration
